# Test results taken from ChEMBL document CHEMBL1136036, “Targeting thrombin and factor VIIa: design, synthesis, and inhibitory activity of functionally relevant indolizidinones” (Bioorg Med Chem Lett, 2002).
# Assays:
# Coagulation factor VII = target: T1, Coagulation factor VII (Homo sapiens, UniProt P08709); test: Compound was tested for inhibitory activity against Coagulation factor VIIa
# T1 sequence (P08709 whole entry): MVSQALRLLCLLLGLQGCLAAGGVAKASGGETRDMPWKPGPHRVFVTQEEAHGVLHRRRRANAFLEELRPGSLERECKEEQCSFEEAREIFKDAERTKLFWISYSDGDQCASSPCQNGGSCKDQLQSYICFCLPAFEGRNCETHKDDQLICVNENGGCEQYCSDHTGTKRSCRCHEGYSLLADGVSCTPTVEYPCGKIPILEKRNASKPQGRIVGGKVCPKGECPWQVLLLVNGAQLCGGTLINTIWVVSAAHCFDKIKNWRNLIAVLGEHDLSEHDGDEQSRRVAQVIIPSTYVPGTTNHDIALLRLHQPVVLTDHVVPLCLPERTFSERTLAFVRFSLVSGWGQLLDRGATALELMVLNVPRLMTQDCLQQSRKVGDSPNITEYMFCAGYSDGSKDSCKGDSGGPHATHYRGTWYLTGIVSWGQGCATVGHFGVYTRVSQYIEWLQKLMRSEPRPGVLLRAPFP
# Coagulation factor XI [1] = target: T2, Coagulation factor XI (Homo sapiens, UniProt P03951); test: Compound was tested for inhibitory activity against Coagulation factor XIa at 8 uM
# T2 sequence (P03951 19-387 limits assumed): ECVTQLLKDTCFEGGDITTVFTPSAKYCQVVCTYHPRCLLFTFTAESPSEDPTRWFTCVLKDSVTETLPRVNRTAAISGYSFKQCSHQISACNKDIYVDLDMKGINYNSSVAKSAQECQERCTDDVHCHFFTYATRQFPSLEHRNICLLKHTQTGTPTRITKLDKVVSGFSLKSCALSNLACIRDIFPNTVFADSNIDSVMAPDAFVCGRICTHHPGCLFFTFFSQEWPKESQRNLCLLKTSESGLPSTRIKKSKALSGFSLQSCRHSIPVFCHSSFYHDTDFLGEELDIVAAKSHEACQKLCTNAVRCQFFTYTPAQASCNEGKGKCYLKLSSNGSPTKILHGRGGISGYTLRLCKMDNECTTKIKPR
# T2 sequence (P03951 388-625 limits assumed): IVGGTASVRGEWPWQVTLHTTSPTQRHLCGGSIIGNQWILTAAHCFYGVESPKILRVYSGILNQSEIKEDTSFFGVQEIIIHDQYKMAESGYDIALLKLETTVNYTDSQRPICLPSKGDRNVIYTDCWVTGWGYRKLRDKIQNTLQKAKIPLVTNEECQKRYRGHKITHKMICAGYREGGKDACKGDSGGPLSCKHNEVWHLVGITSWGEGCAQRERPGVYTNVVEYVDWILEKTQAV
# Coagulation factor XI [2] = target: T2, Coagulation factor XI; test: Compound was tested for inhibitory activity against Coagulation factor XIa
# Plasminogen = Plasminogen (Homo sapiens, UniProt P00747); test: Compound was tested for inhibitory activity against Plasmin
# Sequence of Plasminogen (P00747 97-580 limits assumed): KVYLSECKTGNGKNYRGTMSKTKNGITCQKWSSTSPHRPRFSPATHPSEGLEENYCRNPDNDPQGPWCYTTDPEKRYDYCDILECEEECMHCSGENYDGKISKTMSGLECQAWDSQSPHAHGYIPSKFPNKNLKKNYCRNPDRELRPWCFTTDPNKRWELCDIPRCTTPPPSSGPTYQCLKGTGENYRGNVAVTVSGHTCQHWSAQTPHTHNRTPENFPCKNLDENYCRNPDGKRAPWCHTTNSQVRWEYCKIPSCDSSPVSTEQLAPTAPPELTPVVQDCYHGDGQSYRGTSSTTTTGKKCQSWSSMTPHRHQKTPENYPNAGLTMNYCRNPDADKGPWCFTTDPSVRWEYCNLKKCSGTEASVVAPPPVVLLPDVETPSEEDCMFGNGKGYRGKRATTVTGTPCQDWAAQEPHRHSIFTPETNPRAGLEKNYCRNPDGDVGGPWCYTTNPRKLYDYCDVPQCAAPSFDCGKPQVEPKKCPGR
# Sequence of Plasminogen (P00747 581-810 limits assumed): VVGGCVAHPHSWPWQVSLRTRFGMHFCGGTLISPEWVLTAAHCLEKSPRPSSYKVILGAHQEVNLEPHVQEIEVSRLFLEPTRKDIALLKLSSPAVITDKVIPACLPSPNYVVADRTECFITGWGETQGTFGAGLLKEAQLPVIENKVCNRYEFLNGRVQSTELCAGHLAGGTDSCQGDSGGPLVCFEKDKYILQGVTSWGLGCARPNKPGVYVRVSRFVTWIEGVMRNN
# Prothrombin = Prothrombin (Homo sapiens, UniProt P00734); test: Compound was tested for inhibitory activity against Thrombin
SMILES,IC50 (Coagulation factor VII) [µM],IC50 (Coagulation factor XI [2]) [µM],IC50 (Plasminogen) [µM],IC50 (Prothrombin) [µM],inhibition (Coagulation factor XI [1]) [%]
CC[C@@H]1CC(C(=O)NCc2ccc(C(=N)N)cc2)N2C(=O)[C@@](N)(CC3=CCCCC3)C[C@H](OC)[C@H]12 (stereo partly specified),109,–,–,–,–
N=C(N)c1ccc(CNC(=O)C2CC[C@H]3CC[C@@](O)(Cc4ccccc4)C(=O)N23)cc1 (stereo partly specified),1.1,–,–,–,78
CO[C@H]1C[C@@](O)(Cc2ccccc2)C(=O)N2C(C(=O)NCc3ccc(C(=N)N)cc3)CC[C@@H]12 (stereo partly specified),0.52,35,71,0.11,–
C[C@]1(O)CC[C@@H]2CCC(C(=O)NCc3ccc(C(=N)N)cc3)N2C1=O (stereo partly specified),> 10,–,–,0.27,20
CC[C@@H]1CC(C(=O)NCc2ccc(C(=N)N)cc2)N2C(=O)[C@](N)(CC3=CCCCC3)C[C@H](OC)[C@H]12 (stereo partly specified),4.6,> 133,141,0.17,–

# Second part, led by results:
IC50 (Coagulation factor VII) [µM],IC50 (Coagulation factor XI [2]) [µM],IC50 (Plasminogen) [µM],IC50 (Prothrombin) [µM],SMILES,inhibition (Coagulation factor XI [1]) [%]
1.6,> 133,37,0.38,C=C(C)C[C@]1(N)C[C@H](OC)[C@@H]2[C@H](CC)CC(C(=O)NCc3ccc(C(=N)N)cc3)N2C1=O (stereo partly specified),–
0.42,> 133,11,–,CC[C@@H]1CC(C(=O)NCc2ccc(C(=N)N)cc2)N2C(=O)[C@](N)(Cc3ccccc3)C[C@H](OC)[C@H]12 (stereo partly specified),–
